Here are results for two compounds from patent US20080262097A1, “Formulations” (priority 2005, published 2008).

The test system of assay [1] is P. acnes PRP-017. The assay is described as follows: MBC assay. The format is cell-based, Propionibacterium acnes. The note with it: Cutibacterium acnes, PRP017; P. acnes PRP-017 (resistance MLS). As to the method:
(§1) The Propionibacterium spp organisms were cultured and maintained on Wilkins-Chalgren Anaerobe Medium (agar and broth) at pH 6.0; cultures were incubated anaerobically at 37° C. for 72 hours.
(§2) This assay, normally carried out after an MIC assay, determines the minimum concentration of a compound that is lethal to the micro-organism being tested.
(§3) These samples were then individually sub-cultured on non-selective agar medium, under the incubation conditions described above. Following incubation they were examined visually for bacterial growth.

The test system of assay [2] is P. acnes PRP-046. The assay is described as follows: MBC assay. The format is cell-based, Propionibacterium acnes. To be noted: Cutibacterium acnes, PRP046; P. acnes PRP-046 (resistance None). The method, then:
as §1, §2, §3

The subject of assay [3] is P. acnes PRP-002. Nature of the assay: MBC assay. The format is cell-based, Propionibacterium acnes. To be noted: Cutibacterium acnes, PRP002; P. acnes PRP-002 (resistance Tet/MLS). As to the method:
as §1, §2, §3

In assay [4] the test system is P. acnes PRP-023. Nature of the assay: MBC assay. The format is cell-based, Propionibacterium acnes. To be noted: Cutibacterium acnes, PRP023; P. acnes PRP-023 (resistance MLSK). The method, then:
as §1, §2, §3

For assay [5], the system named is P. acnes PRP-102. The assay is described as follows: MBC assay. The format is cell-based, Propionibacterium acnes. To be noted: Cutibacterium acnes, PRP102; P. acnes PRP-102 (resistance Tet/MLS). As to the method:
as §1, §2, §3

The subject of assay [6] is P. acnes PRP-003. The assay is described as follows: MBC assay. The format is cell-based, Propionibacterium acnes. To be noted: Cutibacterium acnes, PRP003; P. acnes PRP-003 (resistance Tet). The method, then: as §1, §2, §3
Assay [7] relates to P. acnes PRP-007. The assay is described as follows: MBC assay. The format is cell-based, Propionibacterium acnes. The note with it: Cutibacterium acnes, PRP007; P. acnes PRP-007 (resistance Clin). As to the method: as §1, §2, §3
Assay [8] concerns P. acnes PRP-026. Nature of the assay: MBC assay. The note with it: Cutibacterium acnes, PRP026; P. acnes PRP-026 (resistance MLS). The format is cell-based, Propionibacterium acnes. As to the method:
as §1, §2, §3

The test system of assay [9] is P. acnes PRP-059. Nature of the assay: MBC assay. The format is cell-based, Propionibacterium acnes. To be noted: Cutibacterium acnes, PRP059; P. acnes PRP-059 (resistance MLS). The method, then:
as §1, §2, §3

The test system of assay [10] is P. acnes PRP-008. The assay is described as follows: MBC assay. The format is cell-based, Propionibacterium acnes. The note with it: Cutibacterium acnes, PRP008; P. acnes PRP-008 (resistance Clin). The method, then:
as §1, §2, §3

For assay [11], the system named is P. acnes PRP-068. Nature of the assay: MBC assay. To be noted: Cutibacterium acnes, PRP068; P. acnes PRP-068 (resistance Ery). The format is cell-based, Propionibacterium acnes. The method, then: as §1, §2, §3
In assay [12] the test system is P. acnes PRP-004. The assay is described as follows: MBC assay. The format is cell-based, Propionibacterium acnes. The note with it: Cutibacterium acnes, PRP004; P. acnes PRP-004 (resistance Tet). As to the method:
as §1, §2, §3

For assay [13], the system named is P. acnes PRP-101. Nature of the assay: MBC assay. The format is cell-based, Propionibacterium acnes. The note with it: Cutibacterium acnes, PRP101; P. acnes PRP-101 (resistance Tet/MLS). The method, then: as §1, §2, §3
Assay [14] deals with P. granulosum PRP-043. The assay is described as follows: MBC assay. The format is cell-based. The note with it: P. granulosum PRP-043 (resistance MLS). As to the method: as §1, §2, §3
Assay [15] deals with P. avidum ATCC 25577. Nature of the assay: MBC assay. The format is cell-based. To be noted: Cutibacterium avidum, ATCC25577. The method, then: as §1, §2, §3
Assay [16] has as its system P. granulosum NCTC 11865. The assay is described as follows: MBC assay. To be noted: P. granulosum NCTC 11865 (resistance None). The format is cell-based. As to the method:
as §1, §2, §3

For assay [17], the system named is P. granulosum PRP-044. The assay is described as follows: MBC assay. The note with it: P. granulosum PRP-044 (resistance MLS). The format is cell-based. The method, then: as §1, §2, §3
Assay [18] concerns P. granulosum PRP-005. Nature of the assay: MBC assay. The format is cell-based. The note with it: P. granulosum PRP-005 (resistance MLSK). The method, then: as §1, §2, §3
Assay [19] concerns P. granulosum PRP-055. Nature of the assay: MBC assay. The format is cell-based. The note with it: P. granulosum PRP-055 (resistance None). The method, then:
as §1, §2, §3

The subject of assay [20] is E faecalis ATCC 29212. Nature of the assay: MIC assay. The format is cell-based. To be noted: Enterococcus faecalis, ATCC29212. An excerpt: 3. Enterococcus faecalis ATCC 29212—this is a Gram-positive bacterium belonging to the genus Enterococcus. Enterococci have similar properties to streptococci, but differ in their ability to grow on bile-salt containing media such as MacConkey's Agar. Their principal habitat is the mammalian gastrointestinal tract. They cause a number of important infections including endocarditis, urinary tract infections and abscesses. In the context of skin, they are frequently isolated from wound infections. Unlike the streptococci, the enterococci have developed widespread resistance to penicillin. More recently, E. faecalis and E. faecium strains have also developed resistance to the glycopeptide antibiotics such as vancomycin. Vancomycin-Resistant Enterococci (VRE), principally vanA strains of E. faecium, now represent a serious healthcare-acquired infection hazard in the USA, Japan and Western Europe. […]
This is a standard international method for quantitatively assessing the antimicrobial activity of a compound in a liquid medium. […]
The wells were inoculated with a liquid suspension of freshly grown micro-organism and incubated under the conditions described above. […] The MIC value was recorded as the lowest concentration of test compound required to inhibit microbial growth, ie, the lowest concentration for which the liquid in the well remained clear. […]

Converted amounts (≈) assume the structure as drawn. Where two headings read alike, the source gives them in different places. Some results are limits rather than exact numbers.

Usually MBC stands for the smallest concentration meeting the test's criterion for killing. A word on the MIC: it is the lowest concentration found to suppress growth. Turning to `CC(C)(C)c1cc(O)ccc1O` [TBHQ, t-butyl hydroquinone], the MBC in [1] is 7.8 µg/mL (≈ 46.9 µM); in [2], 7.8 µg/mL (≈ 46.9 µM); in assay [3] it was 7.8 µg/mL (≈ 46.9 µM); in assay [4], 7.8 µg/mL (≈ 46.9 µM); in assay [5], 15.6 µg/mL (≈ 93.9 µM); in [6], 7.8 µg/mL (≈ 46.9 µM). Also, the MBC in assay [7], in assay [8], in [9], in assay [10], in assay [11] and in assay [12] was 7.8 µg/mL (≈ 46.9 µM) throughout. For the same compound, the MBC in assay [13] is 7.8 µg/mL (≈ 46.9 µM); in [14] it was 15.6 µg/mL (≈ 93.9 µM); in assay [15] (P. avidum ATCC 25577 (resistance None), read-out: MBC), 3.9 µg/mL (≈ 23.5 µM); in assay [16], 7.8 µg/mL (≈ 46.9 µM); in assay [17] it was 31.2 µg/mL (≈ 188 µM); in [18], 62.5 µg/mL (≈ 376 µM). The MBC in assay [19] amounted to 7.8 µg/mL (≈ 46.9 µM). Moreover, the MIC in assay [20] was found to be 15.6 µg/mL.

As for `O=C(OOC(=O)c1ccccc1)c1ccccc1` [benzoyl peroxide], the MBC in [1] was determined as 62.5 µg/mL (≈ 258 µM); in assay [2] it was 62.5 µg/mL (≈ 258 µM); in assay [3] it was 31.2 µg/mL (≈ 129 µM); in assay [4] it was 62.5 µg/mL (≈ 258 µM); in [5], 62.5 µg/mL (≈ 258 µM); in [6], 31.2 µg/mL (≈ 129 µM). Further, the MBC in assay [7] was found to be 62.5 µg/mL (≈ 258 µM); in assay [8] it was 31.2 µg/mL (≈ 129 µM); in assay [9], 125 µg/mL (≈ 516 µM); in [10], 31.2 µg/mL (≈ 129 µM); in [11], 125 µg/mL (≈ 516 µM); in assay [12], 15.6 µg/mL (≈ 64.4 µM). The MBC was 31.2 µg/mL (≈ 129 µM) in assay [13]; 62.5 µg/mL (≈ 258 µM) in assay [14]; 62.5 µg/mL (≈ 258 µM) in assay [15]; 15.6 µg/mL (≈ 64.4 µM) in assay [16]; 31.2 µg/mL (≈ 129 µM) in assay [17]; 15.6 µg/mL (≈ 64.4 µM) in [18]. For the same compound, the MBC in assay [19] was 15.6 µg/mL (≈ 64.4 µM). For the same compound, in [20] (E faecalis ATCC 29212, read-out: MIC), the MIC is above 250 µg/mL.
